From ChEMBL document CHEMBL3792335, “L-Aspartic and l-glutamic acid ester-based ProTides of anticancer nucleosides: Synthesis and antitumoral evaluation” (Bioorg Med Chem Lett, 2016)

Assays:
[1] = Cytotoxicity against human U87 cells assessed as reduction in cell viability after 72 hrs by MTS assay; format: functional, cell-based, U-87MG ATCC; conditions: U-87 MG
Jurkat = experiment: Cytotoxicity against human Jurkat cells assessed as reduction in cell viability after 72 hrs by MTS assay; format: functional, cell-based
[2] = Cytotoxicity against human PC3 cells assessed as reduction in cell viability after 72 hrs by MTS assay; format: functional, cell-based; conditions: PC-3, 72 h
Ramos = experiment: Cytotoxicity against human Ramos cells assessed as reduction in cell viability after 72 hrs by MTS assay; format: functional, cell-based
A549 = experiment: Cytotoxicity against human A549 cells assessed as reduction in cell viability after 72 hrs by MTS assay; format: functional, cell-based; conditions: A549, 72 h

| SMILES | EC50 [1] [µM] | EC50 (Jurkat) [µM] | EC50 [2] [µM] | EC50 (Ramos) [nM] | EC50 (A549) [µM] |
| --- | --- | --- | --- | --- | --- |
| O=c1[nH]c(=O)n([C@H]2C[C@H](O)[C@@H](CO)O2)cc1I [IDOXURIDINE] | > 100 | 79.7 | > 100 | 47900 | > 100 |
| O=c1[nH]c(=O)n([C@H]2C[C@H](O)[C@@H](CO)O2)cc1/C=C/Br [BRIVUDINE] | > 100 | > 100 | > 100 | > 100000 | > 100 |
| CC(C)CCOC(=O)C[C@H](NP(=O)(OC[C@H]1O[C@@H](n2ccc(N)nc2=O)C(F)(F)[C@@H]1O)Oc1ccccc1)C(=O)OCc1ccccc1 (stereo not given in full) | > 100 | 0.21 | 3.6 | 813 | > 100 |
| O=c1[nH]c(=O)n([C@H]2C[C@H](O)[C@@H](CO)O2)cc1F [FLOXURIDINE] | 18.2 | 0.00333 | 86.9 | 7.51 | 60.8 |
| CC(C)CCOC(=O)C[C@H](NP(=O)(OC[C@H]1O[C@@H](n2ccc(N)nc2=O)C(F)(F)[C@@H]1O)Oc1ccccc1)C(=O)OCCC(C)C (stereo not given in full) | 43.3 | 0.294 | 3.5 | 294 | > 100 |
| CCOC(=O)CC[C@H](NP(=O)(OC[C@H]1O[C@@H](n2ccc(N)nc2=O)C(F)(F)[C@@H]1O)Oc1ccccc1)C(=O)OCC (stereo not given in full) | > 100 | 0.129 | 2.3 | 365 | > 100 |
| CC(C)CCOC(=O)C[C@H](NP(=O)(OC[C@H]1O[C@@H](n2cc(I)c(=O)[nH]c2=O)C[C@@H]1O)Oc1ccccc1)C(=O)OCCC(C)C (stereo not given in full) | 38 | 14.7 | 33.3 | 13600 | 27 |
| CC(C)CCOC(=O)C[C@H](NP(=O)(OC[C@H]1O[C@@H](n2cc(F)c(=O)[nH]c2=O)C[C@@H]1O)Oc1ccccc1)C(=O)OCCC(C)C (stereo not given in full) | 10.1 | 1.1 | 22.7 | 724 | 43.4 |
| CC(C)CCOC(=O)CC[C@H](NP(=O)(OC[C@H]1O[C@@H](n2ccc(N)nc2=O)C(F)(F)[C@@H]1O)Oc1ccccc1)C(=O)OCCC(C)C (stereo not given in full) | > 100 | 1.2 | 10.9 | 1200 | > 100 |
| CC(C)CCOC(=O)[C@H](CC(=O)OCc1ccccc1)NP(=O)(OC[C@H]1O[C@@H](n2ccc(N)nc2=O)C(F)(F)[C@@H]1O)Oc1ccccc1 (stereo not given in full) | 43.7 | 0.209 | 3.8 | 700 | > 100 |
| CC(C)CCOC(=O)C[C@H](NP(=O)(OC[C@H]1O[C@@H](n2cc(/C=C/Br)c(=O)[nH]c2=O)C[C@@H]1O)Oc1ccccc1)C(=O)OCCC(C)C (stereo not given in full) | 12.8 | 5.2 | 12.5 | 6300 | 9.9 |
| Nc1ccn([C@@H]2O[C@H](CO)[C@@H](O)C2(F)F)c(=O)n1 [GEMCITABINE] | > 100 | 0.023 | 0.065 | 0.03 | > 100 |
